The nature of this series: Human HepG2 cell viability assay in 384 well format. The series is classed as toxicity, cell-based. The arrangement: dose 125 nL, time 70.5 hour; concentration not given beside the values. The settings on record: HepG2 cells, read-out: Inhibition.

SMILES strings stand for the structures.

Regarding `CCc1ncc2c(n1)CN(CCCOc1ccc(C#N)cc1)CC2`, the cytotoxicity at 70.5 h is -0.432%.
Under `COCCNC(=O)C1CCCN1S(=O)(=O)c1sc(=O)[nH]c1C` (stereo not drawn) stands -6.44%.
Turning to `Cc1nnc(CN2CCC(Oc3ccc(F)cc3)CC2)o1`, the cytotoxicity at 70.5 h turned out to be 0.0555%.
To `CCCS(=O)(=O)NCC(C)c1ccc(F)c(F)c1` (stereo not drawn) belongs 6.33%.
Under `CNC(=O)c1cccc(CCNc2ccc(C#N)cn2)c1` stands 0.174%; under `COCc1csc(NC(=O)NCc2ccc(C)s2)n1`, 1.09%.
As for `COc1ccc(F)cc1C[S+]([O-])CC(=O)NCc1ccccc1` (stereo not drawn), the cytotoxicity at 70.5 h is -4.53%.
Under `Cc1nsc(NCCNS(=O)(=O)c2ccccc2)n1` stands -1.39%; under `O=C(Nc1cccc(C(F)F)c1)N[C@@H]1C=C[C@H](CO)C1`, 2.83%.
To `COc1cccc2[nH]cc(CCNC(=O)N3CCOCC3C3CC3)c12` (stereo not drawn) belongs 23.2%; to `CNC(=O)c1cccc(CCNc2ccccn2)c1`, -0.207%.
Take `Cc1nc(C)n(CC2CCCCN2CC(=O)NCc2ccccn2)n1` (stereo not drawn): the cytotoxicity at 70.5 h turned out to be 2.56%.
Consider `c1cncc(CN(Cc2ccc3c(c2)OCCO3)CC2CCCO2)c1` (stereo not drawn), for which the cytotoxicity at 70.5 h was determined as 25.2%.
Under `OCC1CCCN1c1cc(NCCc2nccs2)ncn1` (stereo not drawn) stands 0.047%; under `Cc1nc(C)n(CC2CCCN2CC(=O)Nc2ccncc2)n1` (stereo not drawn), -4.71%; under `Cc1cc(C(=O)CN(Cc2cccnc2)CC2CCCO2)c(C)[nH]1` (stereo not drawn), -15.9%.
Under `OCC1CCCN1c1cc(NCc2ccccn2)ncn1` (stereo not drawn) stands 0.0157%; under `CC(C)c1nn(C)c(N2CCOCC2)c1CNCc1nncn1C`, 0.87%.
As to `Cc1noc(C)c1CNCc1c(C(C)C)nn(C)c1N1CCOCC1`, the cytotoxicity at 70.5 h is -10.5%.
Regarding `Cc1ccsc1CNCc1c(C(C)C)nn(C)c1N1CCOCC1`, the cytotoxicity at 70.5 h was -20.5%.
To `O=C(CCc1ccsc1)N1CCCC(N2CCNC2=O)C1` (stereo not drawn) belongs -10.5%.
Take `CN(C)C(=O)C1CCCN1CCCNC(=O)c1ccccc1Cl` (stereo not drawn): the cytotoxicity at 70.5 h was 4.52%.
Under `Cc1cc(N2CCC(N(C)C(=O)c3cccs3)CC2)nc(C)n1` stands -18.8%; under `Cc1cc(C)n(CC2CCCN2C(=O)c2ccc3c(c2)OCCO3)n1` (stereo not drawn), -12.8%; under `Cc1cnn(CC2CCCCN2C(=O)c2ccc3c(c2)nnn3C)c1` (stereo not drawn), -1.73%.
Under `CSCC(CCO)NC(=O)Nc1cc(F)ccc1C` (stereo not drawn) stands 10.3%.
As to `O=C(NCC1CC1)C1CSCN1S(=O)(=O)c1cc(F)cc(F)c1` (stereo not drawn), the cytotoxicity at 70.5 h is -15.2%.
To `c1ccc(-c2cnc(CN(Cc3cccnc3)CC3CCCO3)o2)cc1` (stereo not drawn) belongs -7.3%; to `Cc1cccc(CC(=O)N2CCOCC2c2c(C)n[nH]c2C)c1` (stereo not drawn), -18.3%; to `Cc1ccc(CC(=O)N2CCOCC2c2c(C)n[nH]c2C)cc1` (stereo not drawn), -21.7%.
Regarding `Cc1n[nH]c(C)c1C1COCCN1C(=O)Cc1ccccc1F` (stereo not drawn), the cytotoxicity at 70.5 h was -0.503%.
To `Cc1csc(N2CCN(Cc3nccn3C)CC2C)n1` (stereo not drawn) belongs -16.3%; to `CC(C)(C)c1cnc(CN(Cc2cccnc2)CC2CCCO2)o1` (stereo not drawn), -12.3%; to `COC(C)(C)CNC(=O)N1CCCC1c1c(C)n[nH]c1C` (stereo not drawn), -13.9%.
Under `CCN1CCCC1CN(CCN(C)C)S(=O)(=O)c1ccccc1C#N` (stereo not drawn) stands 29.4%.
Under `Cc1ccc(CNCC2CCN(CCO)CC2)cc1` stands 39.2%; under `CCOC(=O)N1CCN(C(=O)c2sc(-c3ccccc3)nc2C)CC1`, 48.7%; under `Cc1ccc(C(=O)NCC2Cc3ccccc3O2)cc1S(C)(=O)=O` (stereo not drawn), -1.47%.
Take `CC(=O)c1ccc(C(=O)NCC2Cc3ccccc3O2)s1` (stereo not drawn): the cytotoxicity at 70.5 h turned out to be 23.7%.
In the case of `CCS(=O)(=O)c1ccccc1C(=O)NCC1Cc2ccccc2O1` (stereo not drawn), the cytotoxicity at 70.5 h is -3.88%.
Turning to `CC(C)S(=O)(=O)c1ccccc1C(=O)NCC1Cc2ccccc2O1` (stereo not drawn), the cytotoxicity at 70.5 h was -1.85%.
Under `Cc1ccc(C(=O)N2CCCC(CNS(=O)(=O)C(C)C)C2)cc1` (stereo not drawn) stands -3.09%; under `Cc1nccn1-c1cc(CNC(=O)C2CCC(=O)NC2)ccn1` (stereo not drawn), 12.3%; under `NC(=O)c1ccc(CNCC2CCN(CCO)CC2)cc1`, -5.52%.
To `CC(Oc1ccccc1C(F)(F)F)C(=O)NCCNC(=O)C1CC1` (stereo not drawn) belongs -6.09%; to `COc1c(C2CCCN2C(=O)c2ccoc2)c(C)nn1C` (stereo not drawn), 13.3%.
To `Cc1cc(NC(=O)CN2CCCC2c2noc(C3CC3)n2)on1` (stereo not drawn) belongs -7.03%; to `Cc1nnc(NC(=O)CN2CCCC2c2noc(C3CC3)n2)s1` (stereo not drawn), 21.8%.
For the compound `O=S1(=O)CCN(c2nc(C3CC3)ns2)CC1`, the cytotoxicity at 70.5 h was -5.98%.
Under `C1CN(c2nc(C3CC3)ns2)CCS1` stands -1.41%.
To `O=C(NCCOc1ncc(Cl)cc1Cl)NCc1ccncc1` belongs -1.68%; to `O=C(CCc1ccncc1)NCCOc1ncc(Cl)cc1Cl`, -6.13%.
Under `Cc1nccn1-c1cc(CNC(=O)COCC2CC2)ccn1` stands -6.02%; under `CC(C)n1cc(CN2CCCN(C(=O)c3ccco3)CC2)cn1`, 21%.
As to `Cc1cccc(N(CCC(N)=O)CC(=O)Nc2cc(Cl)ccc2Cl)c1`, the cytotoxicity at 70.5 h is -5.69%.
To `Cc1ccc(C(=O)NCCCn2cncn2)c(=O)[nH]1` belongs 21.9%; to `COc1c(C)cnc(CN(C)C(=O)c2cccc(NC(N)=O)c2)c1C`, -2.3%.
Under `Cc1cccc(N(CCC(N)=O)CC(=O)NC2CCCC2)c1` stands 18%; under `COCc1cccc(NC(=O)N(C)Cc2ncc(C)c(OC)c2C)c1`, -3.88%; under `CC1CN(C)CCN1C(=O)c1ccc(-n2cnnc2)cc1` (stereo not drawn), -1.59%.
Under `COc1c(C)cnc(CN(C)C(=O)Nc2ccc3c(c2)CCO3)c1C` stands 19%; under `COC(=O)c1ccc(NC(=O)CCc2ccncc2)c(C)c1`, -11.9%; under `Cc1ccoc1C(=O)N(CCN(C)C)Cc1ccccn1`, -2.01%.
`COc1ccccc1C(C)CC(=O)N1CCCS1(=O)=O` (stereo not drawn): the cytotoxicity at 70.5 h was -5.37%.
Regarding `Cc1cc(C(C)NC(=O)Cn2nc(C)c3ccccc3c2=O)c(C)o1` (stereo not drawn), the cytotoxicity at 70.5 h worked out at 18.3%.
To `CC(C)c1cc(C(=O)NCC2(C(N)=O)CCOCC2)nn1C(C)(C)C` belongs -4.75%.
Under `CC1CCN(CC(=O)NC(C#N)c2cnn(-c3ccccc3)c2)CC1` (stereo not drawn) stands -2.96%; under `Cc1cc(N2CCC(NC(C)Cc3ccsc3)CC2)nc(C)n1` (stereo not drawn), -2.86%.
To `COc1cccc(F)c1C(C)NC(=O)NCc1cc(C(C)C)no1` (stereo not drawn) belongs -12.9%; to `COCCN(CCOC)c1ncccc1I`, -4.47%; to `COC(=O)CCC(=O)NC1CCCc2cc(OC(F)F)ccc21` (stereo not drawn), -13%.
As to `Cc1ccc(S(=O)(=O)NC(=O)CCOCc2ccccc2)s1`, the cytotoxicity at 70.5 h is -10.6%.
To `CCC(Nc1nnnn1-c1ccccc1)C(=O)Nc1ccccc1C` (stereo not drawn) belongs -11%; to `Cc1cccc(-c2nnc(C(C)N3CCn4c(C)nnc4C3)o2)c1` (stereo not drawn), -12.4%; to `Cc1cc(OCc2cccc(F)c2)ccc1NC(=O)C(C)NC(N)=O` (stereo not drawn), 5.5%.
Under `CCC(Nc1nnnn1-c1ccccc1)C(=O)NC1CCSCC1` (stereo not drawn) stands -9.32%; under `CCc1ccc(C(=O)O)cc1S(=O)(=O)Nc1ccc(=O)n(C)c1`, 5.54%; under `CCC1CN(C(=O)c2cnc(-c3cnn(C)c3)s2)CCO1` (stereo not drawn), -6.34%.
Under `CCNC(=O)N(C)C(c1cccnc1)C(C)C` (stereo not drawn) stands -9.88%.
As to `O=C(Cc1ccc(S(=O)(=O)C(F)F)cc1)N1CCC1`, the cytotoxicity at 70.5 h is -10.6%.
For `Cc1cnn(CC(=O)NC2CCCc3cc(OC(F)F)ccc32)c1` (stereo not drawn), the cytotoxicity at 70.5 h was -6.6%.
Under `O=C(CS(=O)(=O)C1CCCC1)NC1CCCc2cc(OC(F)F)ccc21` (stereo not drawn) stands -9.47%; under `Cc1ccsc1C(=O)Nc1cc(Br)c(=O)n(C)c1`, -8.88%; under `Cc1csc(C(C#N)C(=O)NCc2cccnc2)n1` (stereo not drawn), -5.59%.
To `Cc1ccc(OCC(C)NS(=O)(=O)N(C)C)cc1` (stereo not drawn) belongs -5.84%; to `c1ccc(Cn2ccnc2CNC2CCCOc3ccccc32)cc1` (stereo not drawn), -6.62%; to `COCCCN(C)c1ncccc1I`, 8.68%.
Under `Cc1nc(CN(C)C2CCN(Cc3nc4c(F)cccc4[nH]3)C2)no1` (stereo not drawn) stands 4.6%; under `COCC(O)CN(C)c1ccnc2cc(F)ccc12` (stereo not drawn), 13.1%.
On to `CSCc1cc(F)ccc1CNCc1ccncc1`, for which the cytotoxicity at 70.5 h was 4.11%.
For the compound `O=C(Nc1nccs1)C1CCN(Cc2cccc3c2OCCO3)CC1`, the cytotoxicity at 70.5 h was 6.98%.
Under `Cc1csc(NC(=O)C2CCN(Cc3cccc4c3OCCO4)CC2)n1` stands 8.1%; under `CCN1CCC(CNC(=O)c2cc(Cl)c[nH]2)CC1`, -8.09%; under `NC(=O)[C@@H]1Cc2ccccc2CN1S(=O)(=O)N1CCCCC1`, -1.22%.
Turning to `CC(=O)N(C)c1nc(Cn2nnnc2C(C)(C)C)cs1`, the cytotoxicity at 70.5 h was -4.99%.
For `Cn1cnnc1C1CCN(C(=O)c2cc(-c3ccccc3)on2)CC1`, the cytotoxicity at 70.5 h came out at 25.4%.
To `O=C(NCC1(Sc2ccccc2)CC1)c1ccc(=O)[nH]n1` belongs -6.34%; to `CCC1CCCCCN1C(=O)c1cc(C#N)c(SC)[nH]c1=O` (stereo not drawn), 24.7%; to `Cc1noc(C)c1C(=O)N1CCCN(C)c2ccc(Cl)cc21`, -3.33%.
To `Cc1noc(C)c1C(C)C(=O)N1CCCN(C)c2ccc(Cl)cc21` (stereo not drawn) belongs -6.12%.
To `CC(C)(C)OC(=O)NC(C)(C(N)=O)c1cccc(Cl)c1` (stereo not drawn) belongs 25.4%; to `CC1CCN(C(=O)NCC(=O)N(C)CC(F)(F)F)C1` (stereo not drawn), -4.12%; to `Cc1ccc(CNC(c2cccc(F)c2)c2nccn2C)o1` (stereo not drawn), -3%.

The record behind these values is ChEMBL document CHEMBL3507680, “University of Dundee, Gates Library screen for HepG2 cell viability”.
